Target: T1, long form of human 5-HT3-A together with 5-HT3-C (Homo sapiens, UniProt P46098+Q8WXA8)
T1 construct: Characterization of the Function of Protein Encoded by p5HT3CR in Xenopus oocvtes; expressed in transfected cells; host or cells: Xenopus laevis oocytes co-injected with cRNAs
T1 sequence (P46098 24-510 isoform P46098-2): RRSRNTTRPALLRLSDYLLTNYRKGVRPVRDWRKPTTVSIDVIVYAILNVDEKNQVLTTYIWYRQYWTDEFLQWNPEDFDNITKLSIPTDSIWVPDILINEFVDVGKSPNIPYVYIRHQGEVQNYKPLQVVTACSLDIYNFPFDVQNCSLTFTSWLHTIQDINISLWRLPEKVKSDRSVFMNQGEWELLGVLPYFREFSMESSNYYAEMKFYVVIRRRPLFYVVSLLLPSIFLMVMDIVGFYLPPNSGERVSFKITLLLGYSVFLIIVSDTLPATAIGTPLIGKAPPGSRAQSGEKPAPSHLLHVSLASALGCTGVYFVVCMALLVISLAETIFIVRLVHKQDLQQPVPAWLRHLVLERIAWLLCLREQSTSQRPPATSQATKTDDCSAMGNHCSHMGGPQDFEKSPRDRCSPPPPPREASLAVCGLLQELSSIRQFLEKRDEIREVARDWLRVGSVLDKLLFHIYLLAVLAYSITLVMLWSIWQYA
T1 sequence (Q8WXA8 28-447): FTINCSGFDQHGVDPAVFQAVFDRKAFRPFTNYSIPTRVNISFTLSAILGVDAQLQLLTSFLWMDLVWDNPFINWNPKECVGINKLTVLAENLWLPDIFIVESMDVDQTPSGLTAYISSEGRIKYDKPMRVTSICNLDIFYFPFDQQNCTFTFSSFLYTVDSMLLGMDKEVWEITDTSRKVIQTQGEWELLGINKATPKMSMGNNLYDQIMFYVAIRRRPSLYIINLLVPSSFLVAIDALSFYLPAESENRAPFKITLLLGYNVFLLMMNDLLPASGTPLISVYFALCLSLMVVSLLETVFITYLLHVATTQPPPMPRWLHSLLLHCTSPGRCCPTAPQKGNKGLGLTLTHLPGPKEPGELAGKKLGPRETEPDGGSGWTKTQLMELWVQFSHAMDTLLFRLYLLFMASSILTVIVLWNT
Assay: Two-electrode voltage clamp, oocytes co-injected with long form of human 5-HT3-A and 5-HT3-C
Type: cell-based
Conditions: 10 μM; n=2
Description: Characterization of the Function of Protein Encoded by p5HT3CR in Xenopus oocvtes Xenopus laevis oocytes were prepared and injected using standard methods previously described and known in the art (Fraser et al., 1993). Ovarian lobes from adult female Xenopus laevis (Nasco, Fort Atkinson, Wis.) were teased apart, rinsed several times in nominally Ca-free saline containing (in mM): NaCl 82.5, KCl 2.5, MgCl2 1, HEPES 5, adjusted to pH 7.0 with NaOH(OR-2), and gently shaken in OR-2 containing 0.2% collagenase Type 1 (ICN Biomedicals, Aurora, Ohio) for 2–5 hours. When approximately 50% of the follicular layers were removed, Stage V and VI oocytes were selected and rinsed in media consisting of 75% OR-2 and 25% ND-96. The ND-96 contained (in mM): NaCl 100, KCl 2, MgCl2 1, CaCl2 1.8, HEPES 5, Na pyruvate 2.5, gentamicin (50 ug/ml), adjusted to pH 7.0 with NaOH. […] Whole cell agonist-induced currents were measured 1–14 days after injection with a conventional two-electrode voltage clamp (GeneClamp500, Axon Instruments, Foster City, Calif.) using standard methods previously described and known in the art (Dascal, 1987). […]

- sensitivity of oocytes to agonist: insensitive
SMILES: NCCc1c[nH]c2ccc(O)cc12 [5-HT, 5-hydroxytryptamine]

From patent US7109296B2, “Human 5-HT3-C protein” (Ortho-McNeil Pharmaceutical, Inc., priority 1999, dated 2006)
